Laboratory results as given in PMC9820430, “New Affordable Methods for Large-Scale Isolation of Major Olive Secoiridoids and Systematic Comparative Study of Their Antiproliferative/Cytotoxic Effect on Multiple Cancer Cell Lines of Different Cancer Origins” (International Journal of Molecular Sciences, 2022).

Key:
MCF-7 = test: ATP-based luminescence cell viability assay (ViaLight), 72 h; design: species or system human; conditions: Homo sapiens, MCF7, 72 h, 72 h treatment, read-out: EC50 Values of Olive Oil Polyphenols
Method: (§1) The antiproliferative/cytotoxic effects of the selected OOPs on each cell line were assessed by measuring the cellular ATP levels after 72 h treatments using an ATP-based luminescence assay. This assay, initially developed as a tumor chemosensitivity assay, has shown considerable promise as a general in vitro toxicity assay due to its high sensitivity that allows the detection of a small number of cells. Consequently, it can be applied to both cancer cell lines and primary tissue cells. […] The EC50 values were calculated by nonlinear regression (curve fit) using a sigmoidal dose–response equation (Figure 2A and Figure S2).
(§2) The OOPs tested in this study were first dissolved in an appropriate DMSO volume such as to prepare a final stock solution of 50 mM, which was further used to prepare various compound concentrations in DMSO-based solutions. The final DMSO concentration in the cell culture was maintained constant in all treated groups of any given experiment and never exceeded the value of 0.2% (v/v). For the treatment experiments, cells were plated in 96-well culture plates, in 100 μL of complete medium at a seeding density of 5000–10,000 cells/well—depending on cells’ size and doubling time—and were allowed to adhere overnight (~16 h). The next day, 150 μL of complete medium was added to each well and the cells were treated with various concentrations of OOPs. Each concentration was tested in triplicate and was repeated 2–3 times. To prepare the final concentration solutions, 0.5 μL of a 500× stock of each tested compound in DMSO was added directly into each well in a final volume of 250 μL culture medium and was gently mixed by pipetting. Control wells were prepared under the same experimental conditions by adding only DMSO at a final concentration of 0.2% (v/v). Compounds were not renewed during the entire period of cell exposure. All cells were cultured at 37 °C in a 5% (v/v) CO2 for 24, 48 or 72 h.
(§3) Briefly, after the treatment with OOPs, the adapted medium was removed from the dish wells and the cells were washed twice with medium without FBS. Then, the C-lysis (LT27-076) was diluted in PBS (1:2) and a volume of 50 μL was added to each well. Cells were incubated with C-lysis for at least 10 min. Finally, an equal volume of lysed cells from each well and ATP monitoring reagent (AMR; LT27-212) was transferred to the wells of a white-walled illuminometer plate (Greiner bio-one; 655074). Cell viability was quantified by measuring luminescence using a multi-mode microplate reader Safire^2 Tecan (software Magellan V6.00 STD.2PC WIN.20000/XP).

MDA-MB 231 = test: as above; design: species or system human; conditions: Homo sapiens, MDA-MB-231, 72 h, MDA-MB 231; 72 h treatment; read-out: EC50 Values of Olive Oil Polyphenols
Method: as §1, §2, §3

SK-BR-3 = test: as above; design: species or system human; conditions: Homo sapiens, SK-BR-3, 72 h, SK-BR-3; 72 h treatment; read-out: EC50 Values of Olive Oil Polyphenols
Method: as §1, §2, §3

[1] = tested on: sixteen human cancer cell lines originating from eight different tissues; test: ATP-based luminescence cell viability assay, whole panel
Method: as §1, §2, §3

[2] = tested on: three breast cancer cell lines (MDA-MB-231, SK-BR-3 and MCF-7); test: ATP-based luminescence cell viability assay, breast panel; design: species or system human
Method: as §1
The calculated EC50 values ranged between 9.1–100 μΜ (Table 1). The bioactivity of the oleocanthalic acid (7), studied here for the first time for its antiproliferative/cytotoxic activity, was initially evaluated systematically in the three breast cancer cell lines using a concentration range of 10–100 μM. In all cases, the viability measured was ≥80%, predicting EC50 values > 100 μΜ. […] For this reason, oleocanthalic acid (7) was excluded from the rest of this study.
as §2
Briefly, after the treatment with OOPs, the adapted medium was removed from the dish wells and the cells were washed twice with medium without FBS. Then, the C-lysis (LT27-076) was diluted in PBS (1:2) and a volume of 50 μL was added to each well. […] Cell viability was quantified by measuring luminescence using a multi-mode microplate reader Safire^2 Tecan (software Magellan V6.00 STD.2PC WIN.20000/XP).

EC50 (MCF-7): > 100 µM
EC50 (MDA-MB 231): > 100 µM
EC50 (SK-BR-3): > 100 µM
EC50 ([1]; Homo sapiens, 72 h treatment, range across cancer cell lines, read-out: EC50, range over the cancer cell lines): > 100 µM
EC50 ([2]; Homo sapiens, MDA-MB-231, SK-BR-3 and MCF-7, 72 h): > 100 µM
SMILES: C/C=C(/C=O)[C@@H](CC(=O)O)CC(=O)OCCc1ccc(O)cc1 [compound 7, oleocanthalic acid]
Bioactivity range on cancer cell lines (grade in words) ([1]; Figure 3, sixteen cancer cell lines): Low activity
viability measured ([2]; three breast cancer cell lines, concentration range of 10–100 μM): ≥ 80%
